Test results reported in PMC8228075, “In Vitro and In Silico Characterization of G-Protein Coupled Receptor (GPCR) Targets of Phlorofucofuroeckol-A and Dieckol” (Marine Drugs, 2021).
Values joined by “and” are separate entries in the source; they are usually repeats but may differ in a detail not shown here. Equal entries are not always repeated. Where two headings read alike, the source gives them in different places. Marks after values point to notes of the source that are not given here.

Tests used:
[1] = biological target: T1, Alpha-2A adrenergic receptor (hα2AAR) (Homo sapiens, UniProt P08913); experiment: hα2AAR functional agonist assay (Ca2+ mobilization, rat basophil leukemia cells); format: cell-based; conditions: 100 µM; % of control response to 0.1 µM epinephrine bitartrate
T1 construct: host or cells: rat basophil leukemia cells
T1 sequence (P08913 1-465): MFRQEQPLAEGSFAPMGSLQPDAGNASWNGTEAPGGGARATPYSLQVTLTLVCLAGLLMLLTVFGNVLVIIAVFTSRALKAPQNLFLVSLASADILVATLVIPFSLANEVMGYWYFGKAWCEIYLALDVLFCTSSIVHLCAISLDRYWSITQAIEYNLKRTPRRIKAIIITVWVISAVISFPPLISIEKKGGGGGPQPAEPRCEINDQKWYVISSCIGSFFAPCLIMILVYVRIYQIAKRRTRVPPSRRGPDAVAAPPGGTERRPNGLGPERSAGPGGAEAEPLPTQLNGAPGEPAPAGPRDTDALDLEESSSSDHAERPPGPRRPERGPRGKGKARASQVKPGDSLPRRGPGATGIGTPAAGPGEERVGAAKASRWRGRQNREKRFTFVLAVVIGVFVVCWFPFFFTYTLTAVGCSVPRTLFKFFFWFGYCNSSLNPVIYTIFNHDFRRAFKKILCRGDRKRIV
Source text: (§1) The in-house assay protocol and experimental conditions are reported in our previous reports. The functional effect of dieckol and PFF-A was characterized based on their modulation effect on cytosolic Ca^2+ ion mobilization using a fluorimetric detection method or by measuring their effect on cAMP modulation using homogeneous time-resolved fluorescence (HTRF) detection.
The rat basophil leukemia cells were distributed in microplates at a density of 1.1 × 10^4 cells/well after suspending in a HBSS buffer (Invitrogen) containing 20 mM HEPES. Then, the fluorescent probe (Fluo8, AAT Bioquest) mixed with probenecid in HBSS buffer (Invitrogen) complemented with 20 mM Hepes (Millipore) (pH 7.4) was added into each well incubated for 60 min at 30 °C. Thereafter, the assay plates were positioned in a microplate reader (FlipR Tetra, Molecular Device) and we added test compounds, reference agonist/antagonist or HBSS buffer (basal control). Change in fluorescence intensity which varies proportionally to the free cytosolic Ca^2+ ion concentration was measured.

[2] = biological target: T2, Vasopressin 1A receptor (hV1AR) (Homo sapiens, UniProt P37288); experiment: hV1AR functional agonist assay (Ca2+ mobilization, CHO-V1AR cells); format: cell-based; conditions: for Agonist Effect: % of control response to 1 µM AVP
T2 construct: host or cells: CHO-V1AR cells
Source text: as §1
Then, fluorescent probe (Fluo4, Invitrogen) mixed with probenecid in HBSS buffer (Invitrogen, Carlsbad, CA, USA) supplemented with 20 mM HEPES, pH 7.4 (Invitrogen) was added to each well, allowing to equilibrate with the cells for 60 min at 37 °C, then 15 min at 22 °C.

[3] = biological target: T3, Cannabinoid receptor 1 (CB1R) (Homo sapiens, UniProt P21554); experiment: hCB1R functional agonist assay (cAMP, HTRF, CHO cells); format: cell-based; conditions: for Agonist Effect: % of control response to 10 nM CP 55940
T3 construct: host or cells: CHO cells
Description: as §1
Functional activity of phlorotannins over hA2AR, hα2CAR, hCB1R, GLP-1R, and h5-HT1BR was determined by measuring their effects on cAMP production by the HTRF detection method using transected cells expressing human cloned receptors.
The transfected CHO cells were suspended in HBSS buffer (Invitrogen) complemented with 20 mM HEPES (pH 7.4). […] After 30 min of incubation at 37 °C, the cells were lysed and the fluorescence acceptor (D2-labeled cAMP) and fluorescence donor (anti-cAMP antibody labeled with europium cryptate) were added.

h5-HT1AR = biological target: T4, h5-HT1AR (Homo sapiens, UniProt P08908); experiment: h5-HT1AR functional antagonist assay (Ca2+ mobilization, Ba/F3 cells); format: cell-based; conditions: for Antagonist Effect: 50 µM, % inhibition of control response to 30 nM serotonin; for IC50: antagonist effect, mean ± SD, n = 3
T4 construct: host or cells: Ba/F3-5HT1AR cells
T4 sequence (P08908 1-422): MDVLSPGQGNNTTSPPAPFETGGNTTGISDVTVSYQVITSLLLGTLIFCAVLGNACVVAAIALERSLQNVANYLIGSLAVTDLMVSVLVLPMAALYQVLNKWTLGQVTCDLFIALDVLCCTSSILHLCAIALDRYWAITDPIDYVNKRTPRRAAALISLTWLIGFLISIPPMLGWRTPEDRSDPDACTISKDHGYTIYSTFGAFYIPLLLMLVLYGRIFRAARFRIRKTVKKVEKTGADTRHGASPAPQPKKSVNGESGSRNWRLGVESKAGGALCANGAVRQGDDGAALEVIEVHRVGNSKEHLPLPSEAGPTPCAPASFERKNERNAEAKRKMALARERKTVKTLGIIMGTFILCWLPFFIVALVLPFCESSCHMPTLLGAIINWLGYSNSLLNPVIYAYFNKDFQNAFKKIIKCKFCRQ
Description: as §1
In brief, Ba/F3-5HT1AR cells were first suspended in HBSS buffer (Invitrogen, Carlsbad, CA, USA) complemented with 20 mM HEPES buffer (pH 7.4). Then, the cells were distributed into microplates at a density of 1 × 10^6 cells/well. Subsequently, fluorescent probe (Fluo8, AAT Bioquest) mixed with probenecid in HBSS buffer (Invitrogen, Carlsbad, CA, USA) supplemented with 20 mM HEPES (Invitrogen) (pH 7.4) was added to each well, and the plates were incubated for 60 min at 37 °C. […] Fluorescence intensity was measured which varied in proportion to the free cytosolic Ca^2+ ion concentration.

[4] = biological target: T5, Free fatty acid receptor 1 (FFA1R) (GPR40) (Homo sapiens, UniProt O14842); experiment: FFA1R/GPR40 functional antagonist assay (Ca2+ mobilization, HEK-293 cells); format: cell-based; conditions: HEK293, read-out: Antagonist Effect
T5 construct: host or cells: HEK-293 cells

[5] = biological target: T2, Vasopressin 1A receptor (hV1AR); set-up: method as in PMID 31238535; conditions: 100 µM, % of control response to 1 µM AVP, value extracted from previous study ref 22, cited from earlier work
[6] = agonist effect, mean ± SD, n = 3
[7] = BaF3, read-out: Antagonist Effect

T2 sequence (P37288 whole entry): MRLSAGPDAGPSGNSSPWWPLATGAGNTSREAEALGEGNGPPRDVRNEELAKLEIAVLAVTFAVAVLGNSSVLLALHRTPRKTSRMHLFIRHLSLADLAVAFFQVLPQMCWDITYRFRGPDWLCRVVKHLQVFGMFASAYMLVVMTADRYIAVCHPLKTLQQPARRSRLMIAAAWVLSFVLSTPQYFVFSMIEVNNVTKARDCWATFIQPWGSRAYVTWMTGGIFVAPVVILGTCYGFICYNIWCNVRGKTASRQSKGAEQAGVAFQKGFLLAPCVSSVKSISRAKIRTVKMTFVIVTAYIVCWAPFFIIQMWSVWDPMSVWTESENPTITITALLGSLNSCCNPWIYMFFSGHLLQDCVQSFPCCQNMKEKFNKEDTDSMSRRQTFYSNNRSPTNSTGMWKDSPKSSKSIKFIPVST
T3 sequence (P21554 whole entry): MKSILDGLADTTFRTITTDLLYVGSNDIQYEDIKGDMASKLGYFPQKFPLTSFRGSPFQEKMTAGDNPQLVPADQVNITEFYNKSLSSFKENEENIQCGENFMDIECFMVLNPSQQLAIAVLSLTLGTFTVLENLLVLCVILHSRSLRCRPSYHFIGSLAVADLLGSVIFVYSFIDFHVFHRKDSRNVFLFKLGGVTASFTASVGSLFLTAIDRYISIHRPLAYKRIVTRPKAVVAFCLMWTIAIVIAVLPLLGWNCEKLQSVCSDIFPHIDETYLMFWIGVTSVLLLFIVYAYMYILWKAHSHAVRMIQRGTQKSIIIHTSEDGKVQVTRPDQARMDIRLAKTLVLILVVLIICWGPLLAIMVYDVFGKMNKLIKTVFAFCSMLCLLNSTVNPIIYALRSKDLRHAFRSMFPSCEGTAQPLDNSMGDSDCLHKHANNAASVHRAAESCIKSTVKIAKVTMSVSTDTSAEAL
T5 sequence (O14842 whole entry): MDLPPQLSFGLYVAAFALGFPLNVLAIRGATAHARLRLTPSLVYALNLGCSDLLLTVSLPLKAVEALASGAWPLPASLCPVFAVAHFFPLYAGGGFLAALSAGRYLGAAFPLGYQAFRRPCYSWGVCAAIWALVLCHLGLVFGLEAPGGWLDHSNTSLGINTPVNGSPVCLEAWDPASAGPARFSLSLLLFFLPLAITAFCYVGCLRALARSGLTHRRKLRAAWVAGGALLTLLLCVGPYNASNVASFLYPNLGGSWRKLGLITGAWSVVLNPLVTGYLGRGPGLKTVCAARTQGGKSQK

| Structure (SMILES) | Agonist Effect [1] [%] | Agonist Effect ([2]; 50 µM) [%] | Agonist Effect ([2]; 100 µM) [%] | Agonist Effect ([2]; 150 µM) [%] | EC50 [2, 6] [µM] | Agonist Effect ([3]; 100 µM) [%] | Antagonist Effect (h5-HT1AR) [%] | inhibition at 100 µM (h5-HT1AR; [7]) [%] | inhibition at 200 µM (h5-HT1AR; [7]) [%] | IC50 (h5-HT1AR) [µM] | inhibition at 100 µM [4] [%] | Agonist Effect ([3]; 12.5 µM) | Agonist Effect ([3]; 25 µM) | Agonist Effect ([3]; 50 µM) | EC50 [3, 6] [µM] | inhibition at 12.5 µM (h5-HT1AR; [7]) [%] | inhibition at 25 µM (h5-HT1AR; [7]) [%] | Agonist Effect [5] | Agonist Effect ([5]; listed as Phlorofucofuroeckol-A) |
| --- | --- | --- | --- | --- | --- | --- | --- | --- | --- | --- | --- | --- | --- | --- | --- | --- | --- | --- | --- |
| Oc1cc(O)cc(Oc2c(O)cc(O)c3c2Oc2c(O)cc(Oc4c(O)cc(Oc5c(O)cc(O)c6c5Oc5c(O)cc(O)cc5O6)cc4O)cc2O3)c1 [Dieckol, dieckol] | 13.4 ± 19.87 | 50.40 ± 0.42 | 106.73 ± 2.97 | 118.1 ± 2.83 | 39.1 ± 2.12 | −23.3 ± 12.09 | 54.7 ± 1.7 | 91 ± 3.11 | 100.9 ± 0.57 | 43.3 ± 3.22 | 22.6 ± 5.44 | – | – | – | – | – | – | – | – |
| Oc1cc(O)cc(Oc2c(O)cc(O)c3c2Oc2c(O)cc4oc5c(Oc6cc(O)cc(O)c6)c(O)cc(O)c5c4c2O3)c1 [PFF-A, phlorofucofuroeckol-A] | −0.5 ± 0.85 | – | – | – | – | 113.8 ± 3.68 | 85.55 ± 8.41 | 77 ± 11 | – | 17.8 ± 3.42 | 30.1 ± 0.78 | 46.7% and 46.7 ± 6.22% | 80.3% and 80.3 ± 4.10% | 96.45% and 96.45 ± 5.02% | 13.4 ± 2.03 | 37.4 ± 2.19 | 68.2 ± 9.89 | 38.45 ± 7.14% and 38.45 ± 7.14 ^c % | 38.45 ± 7.14 ^a % |
